Measured values taken from PubChem BioAssay AID1259407 (Chemical Carcinogenesis Research Information System (CCRIS), 2018).
Calls of active or inactive are those of the source. No rule for the calls is given here.

Tested on: CCRIS mutagenicity, Ames/micronucleus/aberration tests
Assay: CCRIS mutagenicity studies

Oc1ccccc1
mutagenic call (End Point: IN VITRO CHROMOSOMAL ABERRATIONS, Test System: CHO CELLS, Metabolic Activation: NONE): inactive; negative
mutagenic call (End Point: IN VITRO CHROMOSOMAL ABERRATIONS, Test System: CHO CELLS, Metabolic Activation: RAT, LIVER, S-9, AROCLOR 1254): active; positive
mutagenic call (End Point: IN VITRO CHROMOSOMAL ABERRATIONS, Test System: V79 CELLS, Metabolic Activation: NONE): inactive; negative; effect more pronounced at ph 8 but no significant increase
mutagenic call (End Point: IN VITRO MICRONUCLEUS, Test System: CHINESE HAMSTER OVARY (CHO-K5), Metabolic Activation: NONE): active; positive; no statistical analysis was performed
mutagenic call (End Point: IN VITRO MICRONUCLEUS, Test System: CHINESE HAMSTER OVARY (CHO-K5), Metabolic Activation: RAT, LIVER, S-9, PHENOBARBITAL AND BETA-NAPHTHOFLAVONE): active; positive
mutagenic call (End Point: IN VITRO MICRONUCLEUS, Test System: CHL/IU CELLS, Metabolic Activation: RAT, LIVER, S-9, PHENOBARBITAL AND 5,6-BENZOFLAVONE): active; positive
mutagenic call (End Point: IN VITRO MICRONUCLEUS, Test System: CHO CELLS, Metabolic Activation: RAT, LIVER, S-9, AROCLOR 1254): active; positive
mutagenic call (End Point: In vivo micronucleus, Test System: Bone marrow cells, Species: Mouse, Strain/Sex: CD1/Female, Route: Intraperitoneal): active; positive (highest dose only)
mutagenic call (End Point: In vivo micronucleus, Test System: Bone marrow cells, Species: Mouse, Strain/Sex: CD1/Male, Route: Intraperitoneal): active; positive (highest dose only)
mutagenic call (Test System: AMES SALMONELLA TYPHIMURIUM, Strain/Indicator: TA97, Metabolic Activation: NONE, Method: PREINCUBATION): inactive; negative
mutagenic call (Test System: AMES SALMONELLA TYPHIMURIUM, Strain/Indicator: TA97, Metabolic Activation: RAT, LIVER, S-9, AROCLOR 1254, Method: PREINCUBATION): inactive; negative
mutagenic call (Test System: AMES SALMONELLA TYPHIMURIUM, Strain/Indicator: TA98, Metabolic Activation: NONE, Method: FLUCTUATION (MICROTITER)): inactive; negative
mutagenic call (Test System: AMES SALMONELLA TYPHIMURIUM, Strain/Indicator: TA98, Metabolic Activation: NONE, Method: PREINCUBATION): inactive; negative
mutagenic call (Test System: AMES SALMONELLA TYPHIMURIUM, Strain/Indicator: TA98, Metabolic Activation: RAT LIVER S-9, AROCLOR 1254, Method: FLUCTUATION (MICROTITER)): inactive; negative
mutagenic call (Test System: AMES SALMONELLA TYPHIMURIUM, Strain/Indicator: TA98, Metabolic Activation: RAT LIVER S-9, PHENOBARBITAL AND BETA-NAPHTHOFLAVONE, Method: PREINCUBATION): inactive; negative
mutagenic call (Test System: AMES SALMONELLA TYPHIMURIUM, Strain/Indicator: TA98, Metabolic Activation: RAT, LIVER, S-9, AROCLOR 1254, Method: PREINCUBATION): inactive; negative
mutagenic call (Test System: AMES SALMONELLA TYPHIMURIUM, Strain/Indicator: TA98, Metabolic Activation: RAT, LIVER, S-9, AROCLOR 1254, Method: STANDARD PLATE): inactive; negative
mutagenic call (Test System: AMES SALMONELLA TYPHIMURIUM, Strain/Indicator: TA100, Metabolic Activation: NONE, Method: FLUCTUATION TEST): inactive; negative
mutagenic call (Test System: AMES SALMONELLA TYPHIMURIUM, Strain/Indicator: TA100, Metabolic Activation: NONE, Method: PREINCUBATION): inactive; negative
mutagenic call (Test System: AMES SALMONELLA TYPHIMURIUM, Strain/Indicator: TA100, Metabolic Activation: RAT LIVER S-9, PHENOBARBITAL AND BETA-NAPHTHOFLAVONE, Method: PREINCUBATION): inactive; negative
mutagenic call (Test System: AMES SALMONELLA TYPHIMURIUM, Strain/Indicator: TA100, Metabolic Activation: RAT, LIVER, S-9, AROCLOR 1254, Method: PREINCUBATION): inactive; negative
mutagenic call (Test System: AMES SALMONELLA TYPHIMURIUM, Strain/Indicator: TA100, Metabolic Activation: RAT, LIVER, S-9, PCB, Method: FLUCTUATION TEST): active; positive
mutagenic call (Test System: AMES SALMONELLA TYPHIMURIUM, Strain/Indicator: TA102, Metabolic Activation: NONE, Method: PREINCUBATION): inactive; negative
mutagenic call (Test System: AMES SALMONELLA TYPHIMURIUM, Strain/Indicator: TA102, Metabolic Activation: RAT, LIVER, S-9, AROCLOR 1254, Method: PREINCUBATION): inactive; negative
mutagenic call (Test System: AMES SALMONELLA TYPHIMURIUM, Strain/Indicator: TA104, Metabolic Activation: NONE, Method: PREINCUBATION): inactive; negative
mutagenic call (Test System: AMES SALMONELLA TYPHIMURIUM, Strain/Indicator: TA104, Metabolic Activation: RAT, LIVER, S-9, AROCLOR 1254, Method: PREINCUBATION): inactive; negative
mutagenic call (Test System: AMES SALMONELLA TYPHIMURIUM, Strain/Indicator: TA1535, Metabolic Activation: NONE, Method: PREINCUBATION): inactive; negative
mutagenic call (Test System: AMES SALMONELLA TYPHIMURIUM, Strain/Indicator: TA1535, Metabolic Activation: RAT LIVER S-9, PHENOBARBITAL AND BETA-NAPHTHOFLAVONE, Method: PREINCUBATION): inactive; negative
mutagenic call (Test System: AMES SALMONELLA TYPHIMURIUM, Strain/Indicator: TA1535, Metabolic Activation: RAT, LIVER, S-9, AROCLOR 1254, Method: PREINCUBATION): inactive; negative
mutagenic call (Test System: AMES SALMONELLA TYPHIMURIUM, Strain/Indicator: TA1535, Metabolic Activation: RAT, LIVER, S-9, AROCLOR 1254, Method: STANDARD PLATE): inactive; negative
mutagenic call (Test System: AMES SALMONELLA TYPHIMURIUM, Strain/Indicator: TA1537, Metabolic Activation: NONE, Method: FLUCTUATION (MICROTITER)): inactive; negative
mutagenic call (Test System: AMES SALMONELLA TYPHIMURIUM, Strain/Indicator: TA1537, Metabolic Activation: NONE, Method: PREINCUBATION): inactive; negative
mutagenic call (Test System: AMES SALMONELLA TYPHIMURIUM, Strain/Indicator: TA1537, Metabolic Activation: RAT LIVER S-9, AROCLOR 1254, Method: FLUCTUATION (MICROTITER)): inactive; negative
mutagenic call (Test System: AMES SALMONELLA TYPHIMURIUM, Strain/Indicator: TA1537, Metabolic Activation: RAT LIVER S-9, PHENOBARBITAL AND BETA-NAPHTHOFLAVONE, Method: PREINCUBATION): inactive; negative
mutagenic call (Test System: AMES SALMONELLA TYPHIMURIUM, Strain/Indicator: TA7001, Metabolic Activation: NONE, Method: FLUCTUATION (MICROTITER)): inactive; negative
mutagenic call (Test System: AMES SALMONELLA TYPHIMURIUM, Strain/Indicator: TA7001, Metabolic Activation: RAT LIVER S-9, AROCLOR 1254, Method: FLUCTUATION (MICROTITER)): inactive; negative
mutagenic call (Test System: AMES SALMONELLA TYPHIMURIUM, Strain/Indicator: TA7002, Metabolic Activation: NONE, Method: FLUCTUATION (MICROTITER)): inactive; negative
mutagenic call (Test System: AMES SALMONELLA TYPHIMURIUM, Strain/Indicator: TA7002, Metabolic Activation: RAT LIVER S-9, AROCLOR 1254, Method: FLUCTUATION (MICROTITER)): inactive; negative
mutagenic call (Test System: AMES SALMONELLA TYPHIMURIUM, Strain/Indicator: TA7003, Metabolic Activation: NONE, Method: FLUCTUATION (MICROTITER)): inactive; negative
mutagenic call (Test System: AMES SALMONELLA TYPHIMURIUM, Strain/Indicator: TA7003, Metabolic Activation: RAT LIVER S-9, AROCLOR 1254, Method: FLUCTUATION (MICROTITER)): inactive; negative
mutagenic call (Test System: AMES SALMONELLA TYPHIMURIUM, Strain/Indicator: TA7004, Metabolic Activation: NONE, Method: FLUCTUATION (MICROTITER)): inactive; negative
mutagenic call (Test System: AMES SALMONELLA TYPHIMURIUM, Strain/Indicator: TA7004, Metabolic Activation: RAT LIVER S-9, AROCLOR 1254, Method: FLUCTUATION (MICROTITER)): inactive; negative
mutagenic call (Test System: AMES SALMONELLA TYPHIMURIUM, Strain/Indicator: TA7005, Metabolic Activation: NONE, Method: FLUCTUATION (MICROTITER)): inactive; negative
mutagenic call (Test System: AMES SALMONELLA TYPHIMURIUM, Strain/Indicator: TA7005, Metabolic Activation: RAT LIVER S-9, AROCLOR 1254, Method: FLUCTUATION (MICROTITER)): inactive; negative
mutagenic call (Test System: AMES SALMONELLA TYPHIMURIUM, Strain/Indicator: TA7006, Metabolic Activation: NONE, Method: FLUCTUATION (MICROTITER)): inactive; negative
mutagenic call (Test System: AMES SALMONELLA TYPHIMURIUM, Strain/Indicator: TA7006, Metabolic Activation: RAT LIVER S-9, AROCLOR 1254, Method: FLUCTUATION (MICROTITER)): inactive; negative
mutagenic call (Test System: CHINESE HAMSTER V-79, Strain/Indicator: V-79/6-THIOGUANINE, Metabolic Activation: NONE): inactive; negative
mutagenic call (Test System: E.COLI, Strain/Indicator: WP2UVRA, Metabolic Activation: NONE, Method: PREINCUBATION): inactive; negative
mutagenic call (Test System: E.COLI, Strain/Indicator: WP2UVRA, Metabolic Activation: RAT LIVER S-9, PHENOBARBITAL AND BETA-NAPHTHOFLAVONE, Method: PREINCUBATION): inactive; negative
mutagenic call (Test System: MOUSE LYMPHOMA, Strain/Indicator: L5178Y (TK+/TK-), Metabolic Activation: NONE, Method: SUSPENSION/PLATE): active; positive
mutagenic call (Test System: MOUSE LYMPHOMA, Strain/Indicator: L5178Y (TK+/TK-), Metabolic Activation: RAT, LIVER, S-9, AROCLOR 1254, Method: SUSPENSION/PLATE): active; positive
mutagenic call (Test System: UDS SHE CELLS, Strain/Indicator: THY INCORP, Metabolic Activation: NONE, Method: LIQUID SCINTILLATION COUNTING): active; positive
